Test results: ChEMBL document CHEMBL3232814, “Synthesis and anticancer structure activity relationship investigation of cationic anthraquinone analogs” (2014)

Legend:
Type in all cases: functional
[1] = Growth inhibition of human SF295 cells; conditions: SF-295
[2] = Growth inhibition of human NCI60 cells assessed as cell growth; parameters: concentration or dose not given beside the values
[3] = tested on: HOP-62; experiment: Growth inhibition of human HOP62 cells
[4] = Growth inhibition of human UACC257 cells
[5] = tested on: KM12; experiment: Growth inhibition of human KM12 cells
[6] = tested on: COLO 205; experiment: Growth inhibition of human COLO205 cells
[7] = tested on: Malme-3M; experiment: Growth inhibition of human MALME-3M cells
[8] = tested on: NCI-H460; experiment: Growth inhibition of human NCI-H460 cells
[9] = tested on: HT-29; experiment: Growth inhibition of human HT-29 cells
[10] = tested on: NCI-H226; experiment: Growth inhibition of human NCI-H226 cells
[11] = tested on: SK-MEL-5; experiment: Growth inhibition of human SK-MEL-5 cells
[12] = tested on: SK-MEL-2; experiment: Growth inhibition of human SK-MEL-2 cells
[13] = tested on: SF-268; experiment: Growth inhibition of human SF268 cells
[14] = Growth inhibition of human LOXIMVI cells; conditions: LOX IMVI
[15] = tested on: SW-620; experiment: Growth inhibition of human SW620 cells
[16] = tested on: U-251; experiment: Growth inhibition of human U251 cells
[17] = tested on: A549; experiment: Growth inhibition of human A549 cells
[18] = Growth inhibition of human HOP92 cells
[19] = tested on: SNB-19; experiment: Growth inhibition of human SNB19 cells
[20] = tested on: MDA-MB-435; experiment: Growth inhibition of human MDA-MB-435 cells
[21] = tested on: SK-MEL-28; experiment: Growth inhibition of human SK-MEL-28 cells
[22] = tested on: HCT-116; experiment: Growth inhibition of human HCT116 cells
[23] = tested on: M14; experiment: Growth inhibition of human M14 cells
[24] = Growth inhibition of human EKVX cells
[25] = tested on: NCI-H522; experiment: Growth inhibition of human NCI-H522 cells
[26] = Growth inhibition of human UACC62 cells
[27] = tested on: NCI-H23; experiment: Growth inhibition of human NCI-H23 cells
[28] = Growth inhibition of human HCT15 cells
[29] = tested on: NCI-H322M; experiment: Growth inhibition of human NCI-H322M cells
[30] = Growth inhibition of human SF539 cells
[31] = tested on: SNB-75; experiment: Growth inhibition of human SNB75 cells
[32] = Growth inhibition of human HCC2998 cells
[33] = read-out: LC50 (the source's name)

Structure (SMILES): C[n+]1nn(-c2ccc(C(F)(F)F)cc2)c2c1C(=O)c1ccccc1C2=O.O=S(=O)([O-])C(F)(F)F
- GI50 [1]: 0.54 µM
- LC50 (concentration killing 50% of cells) [1]: 6.74 µM
- Activity [2]: 58.69%
- GI50 [3]: 2.12 µM
- CC50 [3, 33]: 26 µM
- GI50 ([4]; UACC-257): 3.24 µM
- CC50 ([4]; UACC-257, read-out: LC50 (the source's name)): 43.1 µM
- GI50 [5]: 8.17 µM
- CC50 [5, 33]: 55.9 µM
- GI50 [6]: 1.32 µM
- CC50 [6, 33]: 5.73 µM
- GI50 [7]: 1.84 µM
- CC50 [7, 33]: 9.35 µM
- GI50 [8]: 1.4 µM
- CC50 [8, 33]: 7.77 µM
- GI50 [9]: 4.1 µM
- LC50 [9]: > 100 µM
- GI50 [10]: 10.1 µM
- CC50 [10, 33]: 89.4 µM
- GI50 [11]: 0.16 µM
- LC50 (lethal concentration 50) [11]: 0.57 µM
- GI50 [12]: 12.5 µM
- CC50 [12, 33]: > 100 µM
- GI50 [13]: 18.7 µM
- CC50 [13, 33]: > 100 µM
- GI50 [14]: 2.68 µM
- CC50 [14, 33]: 36.8 µM
- GI50 [15]: 14 µM
- CC50 [15, 33]: 64.3 µM
- GI50 [16]: 14 µM
- LC50 [16]: 56.8 µM
- GI50 [17]: 0.86 µM
- CC50 [17, 33]: > 100 µM
- GI50 ([18]; HOP-92): > 100 µM
- CC50 ([18]; HOP-92, read-out: LC50 (the source's name)): > 100 µM
- GI50 [19]: 1.45 µM
- LC50 [19]: 6.54 µM
- GI50 [20]: 1.09 µM
- CC50 [20, 33]: 7.28 µM
- GI50 [21]: 12.8 µM
- CC50 [21, 33]: 56.5 µM
- GI50 [22]: 3.42 µM
- CC50 [22, 33]: 41.9 µM
- GI50 [23]: 0.54 µM
- CC50 [23, 33]: 4.38 µM
- GI50 [24]: 23.4 µM
- CC50 [24, 33]: > 100 µM
- GI50 [25]: 14.3 µM
- CC50 [25, 33]: 68.2 µM
- GI50 ([26]; UACC-62): 1.67 µM
- CC50 ([26]; UACC-62, read-out: LC50 (the source's name)): 30.6 µM
- GI50 [27]: 0.36 µM
- CC50 [27, 33]: 5.33 µM
- GI50 ([28]; HCT-15): 3.48 µM
- CC50 ([28]; HCT-15, read-out: LC50 (the source's name)): 84 µM
- GI50 [29]: 0.83 µM
- CC50 [29, 33]: 4.86 µM
- GI50 ([30]; SF-539): 4.68 µM
- CC50 ([30]; SF-539, read-out: LC50 (the source's name)): 46.7 µM
- GI50 [31]: 1.07 µM
- CC50 [31, 33]: 11.2 µM
- GI50 ([32]; HCC 2998): 1.52 µM
- CC50 ([32]; HCC 2998, read-out: LC50 (the source's name)): 12.9 µM
